{
  "source": "patent US8859587B2",
  "about": "“(2E)-3-phenyl-N-[2,2,2-Trifluoro-1-[[8-quinolineamino)thiomethyl]amino]ethyl]-2-acrylamide and pharmaceutical uses thereof” (Chinese PLA General Hospital, priority 2010, dated 2014)",
  "assay_type_in_all_cases": "cell-based, Wistar rats",
  "key": {"[1]": {"system": "caspase-12 and cleaved caspase-12", "assay": "Western blot of caspase-12 and cleaved caspase-12 in TM-induced cardiac muscle cells", "conditions": "TM 5 μg/ml induction alone", "description": "(12000 rpm×10 min), collected supernatant. Nitrocellulose membrane was dipped in a transferring buffer for 15-20 min in advance. Sampled in 50 μg protein/lane, subjected to 10% polyacrylamide gel SDS-PAGE electrophoretic separation, the gel was then tiled in electrotransferring clamp, in which sponge, filter paper, gel, nitrocellulose membrane, filter paper and sponge were mounted from negative electrode to positive electrode in order. Constant current 350 mA, electrotransferred for 45 min. Electrotransferring membrane to […], the nitrocellulose membrane was taken out, the membrane was washed with TBST for 2 min, sealed with 5% defatted milk powder at room temperature for 1 h, added with first antibody (1:1000) and incubated at 4° C. overnight, the membrane was washed with TBST, 3 times×5 min, then […] second antibody was added, incubated at room temperature for 1 h, washed with TBST, 3 times×5 min, soaked separately with TSM1 and TSM2 for 5 min and 10 min, developed with chromogenic substrates 6.6 μl NBT and 3.3 μl BCIP dissolved in 1 ml of TSM2, after bonds become clear, the reaction was terminated by washing with water. After the end of development, the records were stored by scanning or taking photos."}, "[2]": {"system": "primary cardiac muscle cells induced by TM", "assay": "Cardiomyocyte apoptosis induced by TM, TUNEL detection", "conditions": "TM 5 μg/mL alone, 24 h, n = 6", "description": "(§1) The primary cardiac muscle cells obtained by the method according to the culture method of primary cardiac muscle cells of Example 1 were added with tunicamycin (TM) on the 4th day to perform interference test. The cells were randomly divided into 5 groups: solvent control group (DMSO), TM interference group (5 μg/ml), Compound of Formula I+TM interference group (10 μM+5 μg/ml), Compound of Formula I interference group ([…]+5 μg/ml), Compound of Formula I interference group ([…]+5 μg/ml).\nIt was 24 h after drug interference, the apoptotic cells were detected by terminal deoxynucleotidyl transferase-mediated biotinylated UTP nick end labeling (TUNEL) method, and the cells were treated according to the specification of kit. The cells treated with 0.1 mg/ml DNase I and growing on a glass slide were used as positive control. 5 or more visual fields were randomly selected under light microscope, the apoptotic cells (brown yellow granules seen in nucleus) among the cells were counted. Apoptosis rat=(number of positively stained nuclei/number of all nuclei)×100%."}, "[3]": {"system": "primary cardiac muscle cells induced by TM", "assay": "Cardiomyocyte apoptosis induced by TM, AnnexinV-FITC flow cytometer", "conditions": "TM 5 μg/ml alone, 24 h", "description": "as §1\nit is 24 h after drug interference, the cells were treated by the method of AnnexinV-FITC apoptosis kit, and the apoptosis was detected within 1 h by using a flow cytometer (BD ACScalibur, US Becton-Dickinson Company). For each sample, 14000 cells were collected and analyzed, the test was repeated for 3 times, and the average value was used as a result."}, "[4]": {"system": "cardiac muscle cells induced by Tunicamycin (TM)", "assay": "Survival rate of TM-induced cardiac muscle cells detected by MTT method", "conditions": "TM 5 μg/ml alone, MTT", "description": "The separation and culture of cardiomyocyte refer to the method of differential adhesion separation (Kreider, A. Messing, H. Doan, S. U. Kim, R. P. Lisak and D. E. Pleasure, Enrichment of Schwann cell cultures from neonatal rat sciatic nerve by differential adhesion, Brain Res 2 (1981), pp. 433-444.), Wistar neonate rats newly born within 24 h were used to obtain primary cardiac muscle cells.\nThe separated cardiac muscle cells were inoculated in an amount of 10^4 cells per well to a 96-well plate, and the volume of each well was 100 μl (marginal wells were filled with sterile PBS). […] After continuous inoculation, each well was added with 20 μl of MTT solution (5 mg/ml, formulated with PBS (pH=7.4), i.e., 0.5% MTT), and the cultivation was continued for 4 h. After the end of cultivation, culture medium in wells was carefully sucked out. Each well was added with 150 μl of DMSO, shaken at a low speed in a shaking table for 10 min, so that the crystal was sufficiently dissolved. The optical density (OD) value of each well was measured at wavelength of 490 nm by enzyme-linked immunoassay instrument, and each well was repeatedly measured for 3 times and the results were recorded. The cell survival rate at each time point was calculated according to: […], and a cell growth curve was drawn by using time as abscissa and optical density as ordinate."}},
  "note": "Values joined by “and” are separate entries in the source; they are usually repeats but may differ in a detail not shown here. Equal values may be shown once. Marks after values point to notes of the source that are not given here.",
  "data": [
    {"substance": "Tunicamycin [TM, reference compound]", "values": [
      {"measurement": "expression of Cleaved caspase-12", "setting": "[1]", "result": "obviously expressed"},
      {"measurement": "TUNEL detection (%) cardiomyocyte apoptosis rate", "setting": "[2]", "result": "30.84 ± 1.26 ^a %"},
      {"measurement": "Cardiomyocyte apoptosis rate detected by flow cytometer (%)", "setting": "[3]", "result": "29.98% and 29.98 ± 1.22^a %"},
      {"measurement": "Cell survival rate (%)", "setting": "[4]", "result": "58.8699 ± 10.7785", "unit": "%"}
    ]}
  ]
}
